Laboratory results as given in paper PMC8179358, “An explicitly designed paratope of amyloid-β prevents neuronal apoptosis in vitro and hippocampal damage in rat brain” (Chemical Science, 2020).
*1 amine or outer side, *2 acyl side, *3 side chain or, on linkers, in order; H or OH if unused. Where a SMILES comes first, the peptide text is derived from it. Bridges are numbered along the chain shown (N, C = ends). Roman numbers before positions name the chains, in order. [ ]: non-standard residue; d: D form. X1 = O=C(CCCCC(=O)[*:2])NCCCOCCOCCOCCCNC(=O)CCC(=O)[*:1]; NMeF = CN[C@@H](Cc1ccccc1)C(=O)O; NMeL = CN[C@@H](CC(C)C)C(=O)O; NMeV = CN[C@H](C(=O)O)C(C)C

How the values were obtained:
liver and kidney tissue = test: Sub-chronic toxicity, histopathology of liver and kidney; assay type: in vivo, Sprague-Dawley rats; conditions: 100 and 500 μg kg−1, tail vein, once daily, 42 days, n = 8/group
Description: The tabulated biochemical profile (novel biomarkers of the liver and kidney) corroborates the safety charms of SP1 for further in vivo studies.
24 male Sprague Dawley rats were randomly divided into three groups: control, SP1A, and SP1B. Each group contains 8 animals and administration of SP1was performed for 42 days through a tail vein by the following schedule: Control: Without any treatment.
Rats were sacrificed after 42 days of injection schedule and blood was collected for hematological and biochemical estimations. For the histopathological study, the liver and kidney were also isolated very carefully and checked for cytoarchitectural changes if any.
The body weights and volumes of SP1 to be administered were recorded for each animal. Prior to injection, the tail of the animal was warmed by using warm water circulating pad placed under the cage for 5-10 minutes to dilate the veins. A 25-gauge needle was inserted into the vein towards the direction of the head. The needle and syringe were kept parallel to the tail. […]
The biochemical parameters including blood glucose, serum urea, creatinine, total bilirubin, serum glutamic oxaloacetic transaminase (SGOT), serum glutamic pyruvic transaminase (SGPT), and alkaline phosphatase (ALP) were analyzed for sub-chronic toxicity of SP1by using commercially available diagnostic test kits (Crest Biosystems kits, India). […]

Aβ40 = molecular target: T1, Aβ40 (Homo sapiens, UniProt P05067); test: Thioflavin T assay, inhibition of Aβ40 amyloid formation; assay type: biochemical; conditions: ThT assay; Aβ40 50 μM; 5-fold molar excess; PBS 50 mM pH 7.4, 3% DMSO, 37 °C
T1 construct: 15N labeled (a) Aβ40 (80 μM)
Description: First, we monitored the kinetics of the amyloid formation of Aβ40 (50 μM) by thioflavin T (ThT) assay (Fig. 2a and b). The Aβ40 peptide alone aggregated with time, with a growth saturation point around 72 h, as evident from the surge in ThT fluorescence intensity. […] Green-gold birefringence appears to be a standard result of Aβ40 aggregation under cross-polarized light post-staining with Congo red dye. Owing to amyloid formation, Aβ40 appears as green-gold birefringence (Fig. 2d) under cross-polarized light when stained with Congo red.
400μL of the sample was taken in a cuvette of 1mm path length. Three measurements were accumulated.
Spectra were recorded from 190nm to 260nm on a JASCO J-1500 instrument. […]
1.5 mg of commercially available Aβ40 peptide was taken and disaggregated by TFA (50μ L) and evaporated under nitrogen gas. […] To obtain precise results, two more replicate solutions of each portion were prepared (total number of samples for this experiment was 27), and fibrillization was monitored by various biophysical tools. […]
b. Thioflavin T Fluorescence Assay
A stock solution of Thioflavin T (ThT) of concentration 50μM in PBS (50mM, pH 7.4) was prepared and stored at 4 °C with the proper protection to prevent degradation from light. […] For fluorescence studies, 40μLof peptide sample was mixed with 200μL of ThT solution (50μM), and the total volume was made up to 400μL using PBS. […]

T1 sequence (P05067 672-711 limits assumed): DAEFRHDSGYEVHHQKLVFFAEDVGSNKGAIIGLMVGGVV

**Q.** Which “cytoarchitectural changes in liver and kidney tissue” value (liver and kidney tissue) does the source give for `CC(C)C[C@H](NC(=O)CNC(=O)CCC(=O)NCCCOCCOCCOCCCNC(=O)CCCCC(=O)NCC(=O)N(C)[C@@H](CC(C)C)C(=O)N[C@H](C(=O)N(C)[C@@H](Cc1ccccc1)C(=O)N[C@@H](Cc1ccccc1)C(=O)N[C@@H](C)C(N)=O)C(C)C)C(=O)N(C)[C@H](C(=O)N[C@@H](Cc1ccccc1)C(=O)N(C)[C@@H](Cc1ccccc1)C(=O)N[C@@H](C)C(N)=O)C(C)C` [SP1] (I: GL[NMeV]F[NMeF]A-NH2 / II: G[NMeL]V[NMeF]FA-NH2; linker I:N-II:N via X1) here?
**A.** Its value is “did not observe any cytoarchitectural changes in the liver and kidney tissue”.

**Q.** What about the “inhibition of Aβ40 amyloid formation” value (Aβ40) of the same compound?
**A.** Its value is ~66%.
